The experiment addresses T1, IL-1R1 (interleukin-1 receptor, type I) (Homo sapiens, UniProt P14778).
T1 construct: gene IL1R1
T1 sequence (P14778 18-569): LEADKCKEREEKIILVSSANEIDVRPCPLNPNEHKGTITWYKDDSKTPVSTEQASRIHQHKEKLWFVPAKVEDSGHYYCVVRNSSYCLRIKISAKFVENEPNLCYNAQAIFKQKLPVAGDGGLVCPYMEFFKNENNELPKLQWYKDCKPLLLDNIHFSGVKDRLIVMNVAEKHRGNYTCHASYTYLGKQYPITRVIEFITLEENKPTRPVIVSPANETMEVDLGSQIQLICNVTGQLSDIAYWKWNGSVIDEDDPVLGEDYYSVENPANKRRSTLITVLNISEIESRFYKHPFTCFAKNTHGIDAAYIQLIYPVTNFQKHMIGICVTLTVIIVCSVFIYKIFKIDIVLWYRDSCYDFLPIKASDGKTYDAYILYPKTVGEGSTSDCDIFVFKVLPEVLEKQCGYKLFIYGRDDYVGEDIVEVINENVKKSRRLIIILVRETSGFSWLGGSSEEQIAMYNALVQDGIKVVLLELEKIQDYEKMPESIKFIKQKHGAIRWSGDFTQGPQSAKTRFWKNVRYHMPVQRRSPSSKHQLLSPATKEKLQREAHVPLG
Kind of experiment: SPR (ProteOn XPR36), IL-1R1 immobilized by amine coupling, […] Langmuir kinetic fit; equilibrium analysis gave […]. Format: binding.

A word on the Kd: it is the free concentration of one partner at which half of the binding sites on the other are occupied at equilibrium, for simple one-to-one binding. Low values mean a tighter complex, high ones a looser complex.

In turn, `NCCc1c(-c2ccccc2)n(-c2ccccc2)c2ccccc12` [DPIE, 2-(1,2-diphenyl-1H-indol-3-yl)ethanamine] had a Kd of 316 µM.

The values above are taken from article PMC6073580, “DPIE [2-(1,2-diphenyl-1H-indol-3-yl)ethanamine] Augments Pro-Inflammatory Cytokine Production in IL-1β-Stimulated Primary Human Oral Cells” (International Journal of Molecular Sciences, 2018).
